# How the values were obtained:
# Assay in all cases: Test D pre-/postemergence controlled growth environment herbicide test
# Format in all cases: in vivo
# Settings in all cases: scale 0 to 100
# [1] = system: wheat, winter (winter wheat, Triticum aestivum)
# Outline: (§1)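 Visual injury scored 0–100 (100 = complete control) against untreated controls, 14–21 d after treatment in a controlled growth environment. Compounds, formulated in non-phytotoxic solvent with surfactant, were applied preemergence to silt loam soil or postemergence to 1- to 4-leaf plants (2–18 cm) in peat-based medium.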
# [2] = system: galium (catchweed bedstraw, Galium aparine)
# Outline: as §1
# [3] = system: ryegrass, Italian (Italian ryegrass, Lolium multiflorum)
# Outline: as §1
# kochia (Kochia scoparia) = system: kochia (Kochia scoparia)
# Outline: as §1
# [4] = system: oilseed rape (Brassica napus)
# Outline: as §1
# [5] = system: downy bromegrass (Bromus tectorum)
# Outline: as §1
# [6] = system: pigweed (Amaranthus retroflexus)
# Outline: as §1
# [7] = system: barley, spring (spring barley, Hordeum vulgare)
# Outline: as §1
# [8] = system: barley, winter (winter barley, Hordeum vulgare)
# Outline: as §1
# [9] = system: buckwheat, wild (wild buckwheat, Polygonum convolvulus)
# Outline: as §1
# [10] = system: mustard, wild (wild mustard, Sinapis arvensis)
# Outline: as §1
compound,measurement,setting,value
"Cc1cc(=O)n(-c2ccc(F)cc2)nc1Cc1ccnc(C(F)(F)F)c1 [Compound 1, 2-(4-fluorophenyl)-5-methyl-6-[[2-(trifluoromethyl)-4-pyridinyl]methyl]-3(2H)-pyridazinone]",Plant response rating,"[1]; Postemergence, 31 g ai/ha",0
same,Plant response rating,"[1]; Postemergence, 62 g ai/ha",0
same,Plant response rating,"[1]; Postemergence, 125 g ai/ha",5
same,Plant response rating,"[1]; Postemergence, 250 g ai/ha",5
same,Plant response rating,"[1]; Postemergence, 500 g ai/ha",10
same,Plant response rating,"[1]; Preemergence, 31 g ai/ha",0
same,Plant response rating,"[1]; Preemergence, 62 g ai/ha",0
same,Plant response rating,"[1]; Preemergence, 125 g ai/ha",10
same,Plant response rating,"[1]; Preemergence, 250 g ai/ha",50
same,Plant response rating,"[1]; Preemergence, 500 g ai/ha",70
same,Plant response rating,"[2]; Postemergence, 31 g ai/ha",30
same,Plant response rating,"[2]; Postemergence, 62 g ai/ha",30
same,Plant response rating,"[2]; Postemergence, 125 g ai/ha",45
same,Plant response rating,"[2]; Postemergence, 250 g ai/ha",70
same,Plant response rating,"[2]; Postemergence, 500 g ai/ha",90
same,Plant response rating,"[2]; Preemergence, 31 g ai/ha",0
same,Plant response rating,"[2]; Preemergence, 62 g ai/ha",10
same,Plant response rating,"[2]; Preemergence, 250 g ai/ha",70
same,Plant response rating,"[2]; Preemergence, 500 g ai/ha",100
same,Plant response rating,"[3]; Postemergence, 31 g ai/ha",0
same,Plant response rating,"[3]; Postemergence, 62 g ai/ha",0
same,Plant response rating,"[3]; Postemergence, 125 g ai/ha",5
same,Plant response rating,"[3]; Postemergence, 250 g ai/ha",10
same,Plant response rating,"[3]; Postemergence, 500 g ai/ha",10
same,Plant response rating,"[3]; Preemergence, 31 g ai/ha",0
same,Plant response rating,"[3]; Preemergence, 62 g ai/ha",0
same,Plant response rating,"[3]; Preemergence, 125 g ai/ha",10
same,Plant response rating,"[3]; Preemergence, 250 g ai/ha",20
same,Plant response rating,"[3]; Preemergence, 500 g ai/ha",60
same,Plant response rating,"kochia (Kochia scoparia); Postemergence, 31 g ai/ha",15
same,Plant response rating,"kochia (Kochia scoparia); Postemergence, 62 g ai/ha",20
same,Plant response rating,"kochia (Kochia scoparia); Postemergence, 125 g ai/ha",30
same,Plant response rating,"kochia (Kochia scoparia); Postemergence, 250 g ai/ha",50
same,Plant response rating,"kochia (Kochia scoparia); Postemergence, 500 g ai/ha",70
same,Plant response rating,"kochia (Kochia scoparia); Preemergence, 31 g ai/ha",70
same,Plant response rating,"kochia (Kochia scoparia); Preemergence, 125 g ai/ha",80
same,Plant response rating,"kochia (Kochia scoparia); Preemergence, 250 g ai/ha",100
same,Plant response rating,"kochia (Kochia scoparia); Preemergence, 500 g ai/ha",100
same,Plant response rating,"[4]; Postemergence, 31 g ai/ha",35
same,Plant response rating,"[4]; Postemergence, 62 g ai/ha",40
same,Plant response rating,"[4]; Postemergence, 125 g ai/ha",50
same,Plant response rating,"[4]; Postemergence, 250 g ai/ha",75
same,Plant response rating,"[4]; Postemergence, 500 g ai/ha",80
same,Plant response rating,"[4]; Preemergence, 31 g ai/ha",30
same,Plant response rating,"[4]; Preemergence, 62 g ai/ha",30
same,Plant response rating,"[4]; Preemergence, 125 g ai/ha",40
same,Plant response rating,"[4]; Preemergence, 250 g ai/ha",75
same,Plant response rating,"[4]; Preemergence, 500 g ai/ha",98
same,Plant response rating,"[5]; Postemergence, 31 g ai/ha",0
same,Plant response rating,"[5]; Postemergence, 62 g ai/ha",0
same,Plant response rating,"[5]; Postemergence, 125 g ai/ha",10
same,Plant response rating,"[5]; Postemergence, 250 g ai/ha",15
same,Plant response rating,"[5]; Postemergence, 500 g ai/ha",25
same,Plant response rating,"[5]; Preemergence, 31 g ai/ha",0
same,Plant response rating,"[5]; Preemergence, 62 g ai/ha",0
same,Plant response rating,"[5]; Preemergence, 125 g ai/ha",20
same,Plant response rating,"[5]; Preemergence, 250 g ai/ha",25
same,Plant response rating,"[5]; Preemergence, 500 g ai/ha",25
same,Plant response rating,"[6]; Postemergence, 31 g ai/ha",20
same,Plant response rating,"[6]; Postemergence, 62 g ai/ha",30
same,Plant response rating,"[6]; Postemergence, 125 g ai/ha",30
same,Plant response rating,"[6]; Postemergence, 250 g ai/ha",40
same,Plant response rating,"[6]; Postemergence, 500 g ai/ha",50
same,Plant response rating,"[6]; Preemergence, 62 g ai/ha",20
same,Plant response rating,"[6]; Preemergence, 125 g ai/ha",100
same,Plant response rating,"[6]; Preemergence, 250 g ai/ha",100
same,Plant response rating,"[6]; Preemergence, 500 g ai/ha",100
same,Plant response rating,"[7]; Postemergence, 31 g ai/ha",0
same,Plant response rating,"[7]; Postemergence, 62 g ai/ha",0
same,Plant response rating,"[7]; Postemergence, 125 g ai/ha",5
same,Plant response rating,"[7]; Postemergence, 250 g ai/ha",10
same,Plant response rating,"[7]; Postemergence, 500 g ai/ha",10
same,Plant response rating,"[7]; Preemergence, 31 g ai/ha",0
same,Plant response rating,"[7]; Preemergence, 62 g ai/ha",5
same,Plant response rating,"[7]; Preemergence, 125 g ai/ha",5
same,Plant response rating,"[7]; Preemergence, 250 g ai/ha",30
same,Plant response rating,"[7]; Preemergence, 500 g ai/ha",70
same,Plant response rating,"[8]; Postemergence, 31 g ai/ha",0
same,Plant response rating,"[8]; Postemergence, 62 g ai/ha",0
same,Plant response rating,"[8]; Postemergence, 125 g ai/ha",0
same,Plant response rating,"[8]; Postemergence, 250 g ai/ha",10
same,Plant response rating,"[8]; Postemergence, 500 g ai/ha",15
same,Plant response rating,"[8]; Preemergence, 31 g ai/ha",0
same,Plant response rating,"[8]; Preemergence, 62 g ai/ha",5
same,Plant response rating,"[8]; Preemergence, 125 g ai/ha",5
same,Plant response rating,"[8]; Preemergence, 250 g ai/ha",40
same,Plant response rating,"[8]; Preemergence, 500 g ai/ha",60
same,Plant response rating,"[9]; Postemergence, 31 g ai/ha",20
same,Plant response rating,"[9]; Postemergence, 62 g ai/ha",20
same,Plant response rating,"[9]; Postemergence, 125 g ai/ha",30
same,Plant response rating,"[9]; Postemergence, 250 g ai/ha",40
same,Plant response rating,"[9]; Postemergence, 500 g ai/ha",60
same,Plant response rating,"[9]; Preemergence, 31 g ai/ha",0
same,Plant response rating,"[9]; Preemergence, 62 g ai/ha",40
same,Plant response rating,"[9]; Preemergence, 125 g ai/ha",70
same,Plant response rating,"[9]; Preemergence, 250 g ai/ha",70
same,Plant response rating,"[9]; Preemergence, 500 g ai/ha",70
same,Plant response rating,"[10]; Postemergence, 31 g ai/ha",20
same,Plant response rating,"[10]; Postemergence, 62 g ai/ha",20
same,Plant response rating,"[10]; Postemergence, 125 g ai/ha",30
same,Plant response rating,"[10]; Postemergence, 250 g ai/ha",80
same,Plant response rating,"[10]; Postemergence, 500 g ai/ha",80
same,Plant response rating,"[10]; Preemergence, 62 g ai/ha",40
same,Plant response rating,"[10]; Preemergence, 250 g ai/ha",95
same,Plant response rating,"[10]; Preemergence, 500 g ai/ha",95

# Source: patent US10202361B2, “Pyridazinones as herbicides” (E I DU PONT DE NEMOURS AND COMPANY, priority 2014, dated 2019)
